According to publication PMC12005767 (Advanced Science, 2025):
Where two headings read alike, the source gives them in different places.

Key:
[1] = Pharmacokinetic study in ICR mice (i.v. and p.o.); format: in vivo; settings: male, mouse, plasma; for MRT inf: read-out: MRT0-inf
Protocol: Pharmacokinetics study was performed by Medicilon Preclinical Research (Shanghai) LLC. Male ICR mice, which were purchased from Sino‐British SIPPR Lab Animal Ltd., Shanghai (25–30 g, 14 weeks of age), were fasted overnight before administration and resumed food 6 h after initial plasma sampling. Compound was dissolved in solution containing 10% DMAC, 40% PEG‐400, and 50% water and was delivered to three animals by intravenous bolus injection (i.v.) and oral gavage (p.o.) at a dose of 5 and 20 mg kg^−1 with a volume of 5 and 10 mL kg^−1, respectively. Blood samples were collected at the following time points: 5, 15, 30 min and 1, 2, 4, 6, 8, and 24 h post dose administration. The blood samples were taken via submandibular vein, 30 µL/time point.
Sample were placed in tubes containing K2‐EDTA and stored on ice until centrifuged. The blood samples were centrifuged at 6800 g for 6 min at 2–8 °C within 1 h after collected and stored frozen at ≈−80 °C. A 20 µL plasma sample was treated with 400 µL of methanol containing 10 ng mL^−1 IS to precipitate the protein. The mix was then vortexed for a minute and centrifuged at 18 000 g for 7 min. The resulting supernatant (400 µL) was transferred to a 96‐well plate, and an injection of 1 µL of this supernatant was used for the LC‐MS/MS analysis. The animal protocols used in this study were approved by the Preclinical R&D Unit of Medicilon Institutional Animal Care and Use Committee (IACUC) (26030‐21002) and operated in accordance with the Guide for the Care and Use of Laboratory Animals published by the National Institutes of Health (NIH).

[2] = Tissue distribution study in ICR mice (i.p.); format: in vivo; settings: i.p. at 5 mg/kg; 0.17, 0.5 and 1 h
Protocol: For the distribution experiment, compound was dissolved in solution containing 10% DMAC, 40% PEG‐400, and 50% water and was delivered to […] male ICR mice by intraperitoneal injection (i.p.) at a dose of 5 mg kg^−1. Then three […] were sacrificed for each 0.17, 0.5, and 1 h time period. Subsequently, the heart, liver, spleen, lung, and kidney were immediately collected. Blood samples were obtained via cardiac puncture and processed by centrifugation to retrieve the plasma fraction. Tissues were flushed with normal saline, dried, weighed, and then homogenized in 5 mL methanol. Tissue samples were centrifuged at 4000 g, and supernatants were stored in freezer at −80 °C before analyzing. 20 µL of the reconstitution solution were analyzed via LC‐MS system. The 8‐week‐old male C57BL/6J mice were provided by GemPharmatech (Nanjing, China).

AML12 cells = assay: Mitochondrial activity (Mito-Tracker, Seahorse OCR) in FFA-treated AML12 cells; format: cell-based
[3] = Hydrophilicity / dissolution in 5% DMSO aqueous solution (HPLC); format: physicochemical; settings: Figure S2
Protocol: Figure S2. (A) Liquid chromatograms of compounds A8 and B6 in methanol and 5% DMSO aqueous solution, respectively. The chromatograms were determined with an Agilent 1260 HPLC, using an Agilent 5 TC-C18 column (5 μm, 250mm× 4.6 mm). The eluent system was made up of solvent A (water) and solvent B (methanol). Elution conditions: phase B was 85% The peaks were detected at 254 nm at a flow rate was 1.0 mL/min. (B) The peak areas of serially diluted compound B6 were determined under the above-mentioned liquid chromatographic conditions, and a linear regression equation was fitted. (C) The dissolution status/solubility condition of compounds A8 and B6 in a 5% DMSO aqueous solution.

[4] = ICR, po, 20 mg/kg, p.o. at 20 mg/kg

`CCCCCOCCCCCNNC(=O)c1ccc(CNC(=O)c2ccccc2)cc1` [B6] gave an AUC(0-inf) [1, 4] of 3480 ng·h/mL, a Cmax [1, 4] of 2610 ng/mL and a half-life ([1]; iv, i.v. at 5 mg/kg) of 3.8 h. It also gave a clearance ([1]; iv, i.v. at 5 mg/kg) of 39.5 ± 13.5 mL/min/kg, an MRT inf ([1]; iv, i.v. at 5 mg/kg) of 0.23 ± 0.02 h and a bioavailability ([1]; oral, p.o. at 20 mg/kg vs i.v. at 5 mg/kg, read-out: oral bioavailability (F%)) of 34.5%. The MRT inf ([1]; po, p.o. at 20 mg/kg) was 2.6 ± 0.8 h, the half-life ([1]; po, p.o. at 20 mg/kg) was 2.3 h and the “tissue distribution (blood, heart, liver, spleen, lung, kidney)” value [2] was “highest concentrations observed in the liver and kidneys”. The “FFA-inhibited mitochondrial activity (Mito-Tracker staining)” value (AML12 cells) was “ameliorated”, the “mitochondrial stress test (OCR, basal and maximal respiration)” value (AML12 cells; FFA) was “partially restored mitochondrial activity” and the “hydrophilicity relative to parent compound A8” value [3] was “improved the hydrophilicity”.
